In ChEMBL document CHEMBL1201862, “PubChem BioAssay data set” (2004):
Activity calls are given as the source filed them.

What was measured:
[1] = target: Alkaline phosphatase, placental type (Homo sapiens, UniProt P05187); experiment: human placental alkaline phosphatase inhibition – biochemical, luminescence, confirmation (AID 1512); type: functional
[2] = target: T1, Alkaline phosphatase, tissue-nonspecific isozyme (Homo sapiens, UniProt P05186); experiment: potency against alkaline phosphatase TNAP – biochemical, luminescent, dose response, SAR follow-up (AID 1056)
T1 sequence (P05186 whole entry): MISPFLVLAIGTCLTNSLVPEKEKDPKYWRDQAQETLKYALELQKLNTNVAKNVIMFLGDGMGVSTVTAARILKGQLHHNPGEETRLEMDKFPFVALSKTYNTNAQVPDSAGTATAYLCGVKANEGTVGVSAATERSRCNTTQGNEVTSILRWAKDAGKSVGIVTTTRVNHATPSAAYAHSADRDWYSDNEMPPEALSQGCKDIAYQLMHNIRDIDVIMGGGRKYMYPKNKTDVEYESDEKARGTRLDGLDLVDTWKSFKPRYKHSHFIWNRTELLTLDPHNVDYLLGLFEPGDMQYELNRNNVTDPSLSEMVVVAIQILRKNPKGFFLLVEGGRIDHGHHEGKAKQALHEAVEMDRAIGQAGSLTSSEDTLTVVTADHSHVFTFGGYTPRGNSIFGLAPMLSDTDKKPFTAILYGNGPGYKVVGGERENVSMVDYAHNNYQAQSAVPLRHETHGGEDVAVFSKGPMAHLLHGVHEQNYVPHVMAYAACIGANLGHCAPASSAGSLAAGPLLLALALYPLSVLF

[3] = target: Melanin-concentrating hormone receptor 1 (Homo sapiens, UniProt Q99705); experiment: Fluorescence-based counterscreen for antagonists of the G-protein coupled receptor 7 (GPR7): cell-based high throughput dose response assay to identify antagonists of the melanin-concentrating hormone receptor 1 (MCHR1).; type: functional
[4] = target: T2, Neuropeptides B/W receptor type 1 (Homo sapiens, UniProt P48145); experiment: Fluorescence-based dose response cell-based high throughput screening assay to identify antagonists of the G-protein coupled receptor 7 (GPR7). [Related pubchem assays: 1952 (Screening assay (GPR7 antagonists).), 1880 (Summary AID.)]; type: functional
T2 sequence (P48145 whole entry): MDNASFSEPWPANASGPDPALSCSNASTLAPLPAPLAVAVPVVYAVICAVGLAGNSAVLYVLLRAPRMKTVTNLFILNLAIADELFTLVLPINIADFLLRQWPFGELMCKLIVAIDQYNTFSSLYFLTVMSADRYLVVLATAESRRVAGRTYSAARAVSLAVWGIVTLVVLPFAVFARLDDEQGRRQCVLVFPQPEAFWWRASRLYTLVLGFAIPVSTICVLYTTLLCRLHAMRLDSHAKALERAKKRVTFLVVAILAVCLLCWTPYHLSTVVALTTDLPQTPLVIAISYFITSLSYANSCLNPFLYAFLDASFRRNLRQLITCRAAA

[5] = target: T3, Heat shock factor protein 1 (Mus musculus, UniProt P38532); experiment: enhancement of HSF1-driven luciferase signal – cell-based, NIH3T3, luminescence, dose retest, confirmation (AID 435004); type: functional;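 further: stress induced by proteasome inhibitor MG132 added 30 min after compound; luciferase reporter driven by HSF1 response element in NIH3T3 cells; actives raise luminescence as potentiators of the MG132 stress response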
T3 sequence (P38532 whole entry): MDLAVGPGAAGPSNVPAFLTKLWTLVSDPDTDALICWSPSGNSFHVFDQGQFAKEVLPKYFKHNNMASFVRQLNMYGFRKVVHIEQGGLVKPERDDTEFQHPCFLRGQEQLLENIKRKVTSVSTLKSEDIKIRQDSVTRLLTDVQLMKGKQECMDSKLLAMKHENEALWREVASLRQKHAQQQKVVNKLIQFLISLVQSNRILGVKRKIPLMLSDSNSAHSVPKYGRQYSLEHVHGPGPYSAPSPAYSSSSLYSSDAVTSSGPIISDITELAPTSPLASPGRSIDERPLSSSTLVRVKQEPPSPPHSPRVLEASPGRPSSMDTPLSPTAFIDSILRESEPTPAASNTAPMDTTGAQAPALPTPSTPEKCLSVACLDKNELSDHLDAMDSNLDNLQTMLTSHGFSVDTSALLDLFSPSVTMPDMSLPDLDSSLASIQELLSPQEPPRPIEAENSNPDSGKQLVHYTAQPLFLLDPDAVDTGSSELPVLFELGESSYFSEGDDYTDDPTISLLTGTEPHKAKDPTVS

[6] = viability of HCT116 lacking mutant beta-catenin – cell-based, human colon tumor, dose response (AID 1045); type: functional;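 further: HCT116 colon tumor cells with beta catenin knocked out; cells exposed to compound for 60 hours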
Insulin-degrading enzyme = target: T4, Insulin-degrading enzyme (Homo sapiens, UniProt P14735); experiment: Dose Response: Fluorescence polarization-based cell-based high throughput dose response assay for inhibitors of insulin-degrading enzyme (IDE). [Related pubchem assays: 434962 (Primary screen (IDE inhibitors in singlicate)), 449730 (Counterscreen (Cytotoxicity in triplicate)), 435028 (Confirmation (IDE inhibitors in triplicate)), 434984 (Summary …; type: functional
T4 sequence (P14735 whole entry): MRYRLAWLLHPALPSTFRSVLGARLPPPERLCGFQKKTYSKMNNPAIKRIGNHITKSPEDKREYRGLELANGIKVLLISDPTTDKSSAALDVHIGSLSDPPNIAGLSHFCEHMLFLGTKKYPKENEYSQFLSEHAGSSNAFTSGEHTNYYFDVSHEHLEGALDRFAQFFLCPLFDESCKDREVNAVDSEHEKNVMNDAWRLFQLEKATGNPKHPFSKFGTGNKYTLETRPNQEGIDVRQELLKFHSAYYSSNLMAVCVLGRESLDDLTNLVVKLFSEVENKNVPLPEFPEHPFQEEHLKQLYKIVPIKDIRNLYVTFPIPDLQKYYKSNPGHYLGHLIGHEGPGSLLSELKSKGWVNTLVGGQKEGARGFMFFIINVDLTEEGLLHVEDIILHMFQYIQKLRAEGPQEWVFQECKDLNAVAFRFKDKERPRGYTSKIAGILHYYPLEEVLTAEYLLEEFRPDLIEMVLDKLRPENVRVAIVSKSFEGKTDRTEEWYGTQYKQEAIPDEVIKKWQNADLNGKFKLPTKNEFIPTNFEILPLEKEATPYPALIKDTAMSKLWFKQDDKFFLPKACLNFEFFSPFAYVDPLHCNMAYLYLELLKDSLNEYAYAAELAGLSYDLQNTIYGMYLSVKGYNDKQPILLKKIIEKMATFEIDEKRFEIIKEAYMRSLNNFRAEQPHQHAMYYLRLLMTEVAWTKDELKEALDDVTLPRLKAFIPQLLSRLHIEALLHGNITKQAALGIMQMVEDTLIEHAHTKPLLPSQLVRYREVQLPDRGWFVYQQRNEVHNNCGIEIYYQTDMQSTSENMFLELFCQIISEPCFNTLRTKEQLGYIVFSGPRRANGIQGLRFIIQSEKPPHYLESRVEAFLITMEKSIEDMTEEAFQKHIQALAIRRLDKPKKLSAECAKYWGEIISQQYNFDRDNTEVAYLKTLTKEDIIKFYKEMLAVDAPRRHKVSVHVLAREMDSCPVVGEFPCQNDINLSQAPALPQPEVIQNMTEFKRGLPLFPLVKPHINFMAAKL

[7] = NIH-3T3 fibroblast cytotoxicity, dose response, cytotoxicity control, cell-based, fluorescence, Alamar Blue, secondary assay (AID 2327); type: functional;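 further: NIH-3T3 mouse fibroblasts cultured with fluconazole at 8 µg/mL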
[8] = viability of PTEN-deleted HCT116 cells – cell-based, HCT116 PTEN knockout, dose response (AID 1047); type: functional;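 further: HCT116 colon tumor cells with PTEN knocked out; cells exposed to compound for 60 hours before readout; potency for loss of cell viability measured by luminescence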
[9] = fluconazole-exposed Candida albicans growth modulators – fluorescence, retest, confirmation (AID 2467); type: functional, cell-based
Protein skinhead-1 = target: T5, Protein skinhead-1 (Caenorhabditis elegans, UniProt P34707); type: functional
T5 sequence (P34707 whole entry): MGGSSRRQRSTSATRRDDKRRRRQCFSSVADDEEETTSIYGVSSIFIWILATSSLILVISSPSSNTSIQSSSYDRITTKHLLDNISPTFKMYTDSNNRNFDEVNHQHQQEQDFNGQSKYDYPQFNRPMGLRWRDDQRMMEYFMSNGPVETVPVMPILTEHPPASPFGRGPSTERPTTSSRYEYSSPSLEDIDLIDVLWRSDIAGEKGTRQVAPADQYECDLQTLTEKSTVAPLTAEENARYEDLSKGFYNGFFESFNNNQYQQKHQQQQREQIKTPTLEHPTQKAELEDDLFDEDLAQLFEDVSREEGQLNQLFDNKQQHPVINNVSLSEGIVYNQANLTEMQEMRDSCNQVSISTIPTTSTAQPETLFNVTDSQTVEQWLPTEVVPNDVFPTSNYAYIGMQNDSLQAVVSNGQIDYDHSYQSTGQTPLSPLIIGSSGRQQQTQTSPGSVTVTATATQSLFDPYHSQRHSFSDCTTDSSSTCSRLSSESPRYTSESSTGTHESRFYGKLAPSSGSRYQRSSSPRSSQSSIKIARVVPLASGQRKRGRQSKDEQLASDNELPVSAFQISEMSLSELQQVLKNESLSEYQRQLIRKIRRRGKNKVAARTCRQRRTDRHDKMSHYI

[10] = Counterscreen for IDE inhibitors: Luminescence-based cell-based high throughput dose response assay to identify compounds that are cytotoxic to HEK cells. [Related pubchem assays: 434962 (Primary screen (IDE inhibitors in singlicate)), 449730 (Counterscreen (Cytotoxicity in triplicate)), 435028 (Confirmation (IDE inhibitors in triplicate)) …; type: functional; conditions: HEK293
Cytochrome P450 2D6 = Cytochrome P450 2D6 (Homo sapiens, UniProt P10635); experiment: qHTS Assay for Inhibitors and Substrates of Cytochrome P450 2D6. [Related pubchem assays: 410 ]; type: ADME; conditions: read-out: Potency
[11] = target: T6, Tyrosine-protein phosphatase non-receptor type 7 (Homo sapiens, UniProt P35236); experiment: redox-active compounds inhibiting HePTP phosphatase – biochemical, fluorescence, mechanism study (AID 2068); type: functional
T6 sequence (P35236 whole entry): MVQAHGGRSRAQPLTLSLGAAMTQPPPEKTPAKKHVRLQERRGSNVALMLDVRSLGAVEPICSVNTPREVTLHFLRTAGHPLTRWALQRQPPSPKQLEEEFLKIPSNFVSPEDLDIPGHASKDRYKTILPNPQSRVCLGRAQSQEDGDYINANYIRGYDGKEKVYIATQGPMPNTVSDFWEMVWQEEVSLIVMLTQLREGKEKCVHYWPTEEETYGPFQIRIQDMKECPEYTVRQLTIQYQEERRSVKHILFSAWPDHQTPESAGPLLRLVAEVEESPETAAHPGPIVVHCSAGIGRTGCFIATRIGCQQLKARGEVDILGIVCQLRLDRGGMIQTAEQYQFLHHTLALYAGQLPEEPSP

[12] = target: T7, Dual specificity protein phosphatase 6 (Rattus norvegicus, UniProt Q64346); type: functional
T7 sequence (Q64346 whole entry): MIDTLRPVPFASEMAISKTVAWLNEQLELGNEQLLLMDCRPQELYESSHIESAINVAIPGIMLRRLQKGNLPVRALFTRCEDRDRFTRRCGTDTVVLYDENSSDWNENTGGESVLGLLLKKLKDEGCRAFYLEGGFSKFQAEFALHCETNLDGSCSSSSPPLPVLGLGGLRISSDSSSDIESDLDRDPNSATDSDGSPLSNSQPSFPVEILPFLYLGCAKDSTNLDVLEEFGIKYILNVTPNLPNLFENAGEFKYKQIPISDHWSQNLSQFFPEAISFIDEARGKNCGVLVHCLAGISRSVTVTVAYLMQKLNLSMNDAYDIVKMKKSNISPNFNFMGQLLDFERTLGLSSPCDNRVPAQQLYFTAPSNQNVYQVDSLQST

[13] = target: Polyadenylate-binding protein 1 (Homo sapiens, UniProt P11940); experiment: blockers of PABP interaction with poly(A) – biochemical, fluorescence polarization, […] (AID 2014)
[14] = target: Eukaryotic translation initiation factor 4H (Homo sapiens, UniProt Q15056); experiment: eIF4H binding inhibition – biochemical, uHTS, fluorescence polarization, translation initiation inhibitor project, primary screen (AID 2012)
[15] = target: Voltage-gated N-type calcium channel alpha-1B subunit/Amyloid beta A4 precursor protein-binding family A member 1 (Homo sapiens, UniProt Q00975+Q02410); experiment: disruptors of Mint-PDZ/N-type channel peptide interaction – biochemical, HTRF, set 2, SAR follow-up (AID 434980); type: functional
[16] = target: T6, Tyrosine-protein phosphatase non-receptor type 7; type: functional
[17] = target: T7, Dual specificity protein phosphatase 6
[18] = target: Glyceraldehyde-3-phosphate dehydrogenase (Homo sapiens, UniProt P04406)
Glyceraldehyde-3-phosphate dehydrogenase, sequence (P04406 whole entry): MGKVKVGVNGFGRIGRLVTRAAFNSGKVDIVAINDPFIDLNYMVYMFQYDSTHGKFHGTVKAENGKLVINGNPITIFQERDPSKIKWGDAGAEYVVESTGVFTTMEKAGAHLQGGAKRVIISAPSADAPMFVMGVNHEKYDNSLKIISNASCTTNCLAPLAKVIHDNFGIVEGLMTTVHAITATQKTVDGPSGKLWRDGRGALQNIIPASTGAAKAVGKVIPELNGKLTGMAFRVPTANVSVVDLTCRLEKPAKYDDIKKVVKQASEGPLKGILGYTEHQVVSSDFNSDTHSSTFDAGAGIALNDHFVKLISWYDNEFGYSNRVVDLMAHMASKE

Cytochrome P450 2D6, sequence (P10635 whole entry): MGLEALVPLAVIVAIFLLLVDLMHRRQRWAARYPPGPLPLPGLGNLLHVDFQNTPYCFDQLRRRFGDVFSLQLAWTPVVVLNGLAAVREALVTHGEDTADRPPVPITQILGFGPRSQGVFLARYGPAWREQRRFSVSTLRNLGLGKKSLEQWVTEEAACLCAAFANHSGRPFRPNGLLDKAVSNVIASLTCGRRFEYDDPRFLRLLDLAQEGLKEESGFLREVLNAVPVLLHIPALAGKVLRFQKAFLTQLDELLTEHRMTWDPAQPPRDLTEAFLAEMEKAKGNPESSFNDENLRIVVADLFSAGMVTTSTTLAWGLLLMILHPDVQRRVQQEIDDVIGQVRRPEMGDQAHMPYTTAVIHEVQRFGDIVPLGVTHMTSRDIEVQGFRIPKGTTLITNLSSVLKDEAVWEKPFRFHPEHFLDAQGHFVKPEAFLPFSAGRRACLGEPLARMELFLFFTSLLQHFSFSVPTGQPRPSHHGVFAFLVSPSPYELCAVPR
Melanin-concentrating hormone receptor 1, sequence (Q99705 whole entry): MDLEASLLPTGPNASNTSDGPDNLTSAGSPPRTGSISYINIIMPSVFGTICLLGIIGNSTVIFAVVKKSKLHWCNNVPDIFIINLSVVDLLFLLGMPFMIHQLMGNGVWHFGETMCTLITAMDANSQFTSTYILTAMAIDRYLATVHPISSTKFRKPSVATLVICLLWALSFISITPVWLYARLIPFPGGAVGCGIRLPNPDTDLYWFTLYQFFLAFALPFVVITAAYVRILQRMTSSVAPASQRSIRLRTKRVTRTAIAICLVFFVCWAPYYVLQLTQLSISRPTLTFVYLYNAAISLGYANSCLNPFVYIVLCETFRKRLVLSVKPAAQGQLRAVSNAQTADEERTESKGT
Polyadenylate-binding protein 1, sequence (P11940 whole entry): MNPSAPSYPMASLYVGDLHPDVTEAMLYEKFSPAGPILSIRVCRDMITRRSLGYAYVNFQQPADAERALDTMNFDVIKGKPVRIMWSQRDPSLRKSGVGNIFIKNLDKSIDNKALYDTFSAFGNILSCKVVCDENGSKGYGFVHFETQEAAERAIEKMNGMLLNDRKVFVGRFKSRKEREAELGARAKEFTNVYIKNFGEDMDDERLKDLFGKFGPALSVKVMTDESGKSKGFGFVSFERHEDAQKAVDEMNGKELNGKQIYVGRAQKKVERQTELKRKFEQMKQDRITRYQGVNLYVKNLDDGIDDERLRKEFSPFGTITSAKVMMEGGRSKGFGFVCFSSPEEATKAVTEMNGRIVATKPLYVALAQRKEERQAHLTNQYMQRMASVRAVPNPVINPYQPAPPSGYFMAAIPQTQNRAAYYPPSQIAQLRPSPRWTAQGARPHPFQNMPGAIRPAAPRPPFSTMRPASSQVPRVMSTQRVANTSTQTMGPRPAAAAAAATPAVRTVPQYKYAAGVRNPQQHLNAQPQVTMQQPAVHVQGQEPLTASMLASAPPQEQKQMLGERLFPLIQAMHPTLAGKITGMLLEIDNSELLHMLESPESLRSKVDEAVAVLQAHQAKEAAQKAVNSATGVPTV
Alkaline phosphatase, placental type, sequence (P05187 whole entry): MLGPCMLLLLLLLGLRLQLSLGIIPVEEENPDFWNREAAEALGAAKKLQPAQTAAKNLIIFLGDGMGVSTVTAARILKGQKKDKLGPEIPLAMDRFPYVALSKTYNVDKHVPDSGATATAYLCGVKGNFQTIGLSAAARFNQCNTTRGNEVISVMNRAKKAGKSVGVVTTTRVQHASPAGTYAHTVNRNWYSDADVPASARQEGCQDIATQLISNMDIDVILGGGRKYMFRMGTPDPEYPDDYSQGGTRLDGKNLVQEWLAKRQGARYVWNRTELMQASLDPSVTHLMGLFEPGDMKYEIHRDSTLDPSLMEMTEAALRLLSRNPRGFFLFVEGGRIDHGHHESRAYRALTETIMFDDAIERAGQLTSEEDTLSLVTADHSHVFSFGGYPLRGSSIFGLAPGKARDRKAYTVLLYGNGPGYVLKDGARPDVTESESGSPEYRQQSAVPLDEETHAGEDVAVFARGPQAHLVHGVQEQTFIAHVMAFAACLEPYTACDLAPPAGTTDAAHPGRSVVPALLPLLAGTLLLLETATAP

Compound: CCn1c(SCC(=O)c2ccc(O)c(O)c2)nnc1-c1ccc(OC)cc1
- IC50 [1]: 8.31 µM (inactive)
- IC50 [2]: > 100 µM (inactive)

Compound: Cc1ccccc1CC1(CO)CCCN(C(=O)c2ccccc2Cl)C1 (centres undefined)
- IC50 [3]: 33.3 µM (not active)
- IC50 [4]: > 43.8 µM (not active)
- EC50 [5]: > 260 µM (inactive)

Compound: N=c1c(C(=O)NC2CCCCC2)cc2c(=O)n3ccccc3nc2n1CC1CCCO1 (centres undefined)
- IC50 [3]: > 43.8 µM (not active)
- IC50 [4]: > 43.8 µM (not active)

Compound: S=C(Nc1ccccc1)Nc1nc2ccccc2n1CCOc1ccccc1
- EC50 [6]: 15.9 µM (active)
- IC50 (Insulin-degrading enzyme): > 55.9 µM (not active)
- EC50 [7]: 8.47 µM (inconclusive)
- EC50 [8]: 17.4 µM (active)
- EC50 [9]: 2.08 µM (active)
- IC50 (Protein skinhead-1): > 100 µM (inactive)
- IC50 [10]: 15.9 µM (not active)

Compound: O[C@@H]1CC[C@H]2Cc3ccccc3N=C21
- AC50 (Cytochrome P450 2D6): 20 µM (inconclusive)

Compound: COc1cc(C(=S)NCc2ccc(F)c(C(F)(F)F)c2)ccc1O
- IC50 [11]: 1.65 µM (active)
- IC50 [12]: > 100 µM (inactive)

Compound: O=C1NC(=S)N(C(=O)c2ccc(F)cc2)/C1=C/c1ccccc1
- EC50 [6]: 54.1 µM (active)
- IC50 (Insulin-degrading enzyme): 22.2 µM (not active)
- EC50 [8]: 40.8 µM (active)
- IC50 [10]: 22.4 µM (not active)

Compound: CN1/C(=C/c2cccc[n+]2CCO)Sc2ccccc21
- IC50 [13]: 1.87 µM (active)
- IC50 [14]: > 100 µM (inactive)

Compound: Cc1nc(/N=N\c2cc(S(=O)(=O)O)c3cc([N+](=O)[O-])cc(S(=O)(=O)O)c3c2)c(COP(=O)(O)O)c(C=O)c1O
- AC50 (Cytochrome P450 2D6): 20 µM (inconclusive)

Compound: O=C(Nc1ncc(-c2ccccc2)s1)c1cc(-c2ccco2)nc2ccccc12
- IC50 [15]: 18 µM (active)

Compound: C[C@@H](C(N)=O)n1c(=O)n(Cc2ccccc2)c(=O)n(-c2ccccc2)c1=O
- IC50 [16]: > 100 µM (not active)
- IC50 [17]: > 100 µM (inactive)
- IC50 [12]: > 100 µM (inactive)
- IC50 [18]: > 100 µM (not active)
